Assay: in vitro
Conditions: human, hek293t cells

SMILES | viability at 48 h, 25 µM
C=CC(=O)Nc1cccc2c1CCN2C(C)=O [1-F05, N-(1-acetyl-2,3-dihydro-1H-indol-4-yl)prop-2-enamide] | 110%
C=CC(=O)NC1CCOC1C (stereo not shown) [1-F06, N-(2-methyloxolan-3-yl)prop-2-enamide] | 74.6%
C=CC(=O)N(C)Cc1ccnn1CC [1-F07, N-[(1-ethyl-1H-pyrazol-5-yl)methyl]-N-methylprop-2-enamide] | 100%
C=CC(=O)Nc1cc(SCc2ccccc2C)ncn1 [1-F08, N-(6-{[(2-methylphenyl)methyl]sulfanyl}pyrimidin-4-yl)prop-2-enamide] | 0.816%
C=CC(=O)N(Cc1c(C)cccc1OC)C1CCCCNC1=O (stereo not shown) [1-F09, N-[(2-methoxy-6-methylphenyl)methyl]-N-(2-oxoazepan-3-yl)prop-2-enamide] | 85.8%
C=CC(=O)NC(C)Cn1nc(C)cc1C (stereo not shown) [1-F10, N-[1-(3,5-dimethyl-1H-pyrazol-1-yl)propan-2-yl]prop-2-enamide] | 55.7%
C=CC(=O)N(Cc1nccc2c1CCCC2)C1CCCC(OC)C1 (stereo not shown) [1-F11, N-(3-methoxycyclohexyl)-N-[(5,6,7,8-tetrahydroisoquinolin-1-yl)methyl]prop-2-enamide] | 100%
C=CC(=O)NCCC(=O)N1CCC2(CC(=O)c3ccccc3O2)C1 (stereo not shown) [1-F12, N-(3-oxo-3-{4-oxo-3,4-dihydrospiro[1-benzopyran-2,3'-pyrrolidin]-1'-yl}propyl)prop-2-enamide] | 82.1%
C=CC(=O)N(Cc1cc(F)cc(Cl)c1)C(C)C1CCOCC1 (stereo not shown) [1-F13, N-[(3-chloro-5-fluorophenyl)methyl]-N-[1-(oxan-4-yl)ethyl]prop-2-enamide] | 110%
C=CC(=O)Nc1cn(C)nc1OC(C)C [1-F14, N-[1-methyl-3-(propan-2-yloxy)-1H-pyrazol-4-yl]prop-2-enamide] | 71.2%
C=CC(=O)N(Cc1nonc1C)CC1C(C)=CCCC1C (stereo not shown) [1-F15, N-[(2,6-dimethylcyclohex-2-en-1-yl)methyl]-N-[(4-methyl-1,2,5-oxadiazol-3-yl)methyl]prop-2-enamide] | 108%
C=CC(=O)NC1CCCCC12CCCC2 (stereo not shown) [1-F16, N-{spiro[4.5]decan-6-yl}prop-2-enamide] | 77.6%
C=CC(=O)NCC12CC3CC(CC(C3)C1)C2 [1-F17, N-[(adamantan-1-yl)methyl]prop-2-enamide] | 110%
C=CC(=O)NC1(c2cc(C)no2)CCOCC1 [1-F18, N-[4-(3-methyl-1,2-oxazol-5-yl)oxan-4-yl]prop-2-enamide] | 68.5%
C=CC(=O)N1CCCC1c1c(C)nn(CC(C)C)c1Cl (stereo not shown) [1-F19, 1-{2-[5-chloro-3-methyl-1-(2-methylpropyl)-1H-pyrazol-4-yl]pyrrolidin-1-yl}prop-2-en-1-one] | 119%
C=CC(=O)N1CCOC(Cn2cncn2)C1 (stereo not shown) [1-F20, 1-{2-[(1H-1,2,4-triazol-1-yl)methyl]morpholin-4-yl}prop-2-en-1-one] | 85.3%
C=CC(=O)Nc1sc2c(c1C(N)=O)CCCCC2 [1-F21, 2-(prop-2-enamido)-4H,5H,6H,7H,8H-cyclohepta[b]thiophene-3-carboxamide] | 113%
C=CC(=O)NCC1(C)CCC(C)(C)CC1 [1-F22, N-[(1,4,4-trimethylcyclohexyl)methyl]prop-2-enamide] | 83.2%
C=CC(=O)N1CSCC1C(=O)N(C)C (stereo not shown) [1-G03, N,N-dimethyl-3-(prop-2-enoyl)-1,3-thiazolidine-4-carboxamide] | 75.4%
C=CC(=O)Nc1ccccc1Sc1nncs1 [1-G04, N-[2-(1,3,4-thiadiazol-2-ylsulfanyl)phenyl]prop-2-enamide] | 32.3%
C=CC(=O)NC(c1ccccc1)C1CCC1 (stereo not shown) [1-G05, N-[cyclobutyl(phenyl)methyl]prop-2-enamide] | 76.5%
C=CC(=O)Nc1ccc(O)c(C(=O)O)c1 [1-G06, 2-hydroxy-5-(prop-2-enamido)benzoic acid] | 70.3%

From PMC11995724, “Antibiotic target discovery by integrated phenotypic and activity-based profiling of electrophilic fragments” (Cell chemical biology, 2025)
